Assay results: patent US9370555B2, “Surfactant protein D for the treatment of disorders associated with lung injury” (priority 1998, dated 2016)
“Also recorded” adds a separate entry of the source.

Legend:
MMP-2 and 9 = test: Gelatin zymography of conditioned media from alveolar macrophages of SP-D(−/−) mice; format: cell-based, mouse; conditions: for gelatinolytic activity of MMP-2 and 9 in conditioned media: AMs from SP-D(−/−) mice, 20 mM NAC, 200 μM PDTC, 1 μM DPI, 1 mM apocynin, 10 μM SN-50, 24 h
Procedure: Isolation of alveolar macrophages (AMs) from bronchoalveolar lavage (BAL) was performed by instilling ten, 1 ml aliquots of phosphate-buffered saline (PBS). BAL fluid from several animals was pooled to provide sufficient numbers of macrophages for each analysis. The lavage was centrifuged at 1200 rpm at 7 min and pelleted cells were resuspended in serum-free RPMI medium containing 1% of Nutriodoma (Boehringer Mannheim, Indianapolis, Ind.), and counted with a hemocytometer. More than 90% of BAL cells were AM in both WT and SP-D (−/−) mice. For some experiments, alveolar macrophages (AMs) were isolated by differential attachment to tissue culture flasks at 37° C. Non-adherent cells were then removed, and fresh, serum-free medium was added. The adherent AMs were maintained in a humidified atmosphere containing 5% CO2 and 95% air until the end of the experiments. To determine whether increased oxidant production mediated the expression of MMPs by AMs from SP-D (−/−) mice, the cells were treated with N-acetylcysteine (NAC) and pyrrolidine dithiocarbamate (PDTC), both antioxidant reagents as follows: AMs from SP-D (−/−) mice were pooled and placed in culture at a concentration of 5×10^5 cells per well in serum-free RPMI medium. The AMs were treated with 20 mM N-acetylcysteine (NAC), 200 μM pyrolidine dithiocarbamate (PDTC), 1 μM diphenylene iodonium chloride (DPI) (Sigma, St. Louis, Mo.), or 1 mM apocynin (Aldrich, Milwaukee, Wis.). Cells were also incubated with a 10 μM SN-50 (Calbiochem, LaJolla, Calif.), an inhibitor of NF-κB nuclear import. After 6 h incubation, supernatants were removed and the cells were washed and incubated with fresh media including the reagents for 24 h. […] RAW 264.7 murine macrophage cell line was obtained from the American Type Culture Collection (Rockville, Md.) and maintained in DMEM containing 10% FBS, 10 mM HEPES, 50 U/ml penicillin and 50 μg/mL streptomycin. 2×10^5 cells in 24-well plates were incubated with or without 10 μM menadione (Sigma, St. Louis, Mo.) for 24 hours. Gelatinolytic activity in the culture media of untreated and treated cells was analyzed by SDS-PAGE zymography (FIGS. 29A-29D). Gelatin Zymography was performed as follows: MMP activities were measured in macrophage-conditioned media. Proteinases in the conditioned media were concentrated by incubation with gelatin-agarose beads (Amersham Pharmacia, Arlington Heights, Ill.) for 2 h at 4° C. The beads were pelleted and washed, and proteinases eluted by incubation in sample buffer for 45 min at 37° C. The samples then were electrophoresed into 10% Zymogram gelatin gels (NOVEX, San Diego, Calif.). […] Gels were stained with 0.5% (wt/vol) Coomassie blue in 50% methanol and 10% acetic acid for 30 min, then destained. MMPs were detected as clear bands against a blue background.

MMP-2 and 9 mRNA = test: RT-PCR of MMP-2 and 9 mRNA in cultured AMs from SP-D(−/−) mice; format: cell-based, mouse; conditions: 1 mM apocynin
NF-κB = test: EMSA of nuclear extracts from AMs of SP-D(−/−) mice, NF-κB oligonucleotide; format: cell-based, mouse; conditions: AMs isolated from SP-D(−/−) mice
Procedure: (§1) To assess whether apocyanin affected binding of nuclear extracts, the following protocol was used: Nuclear extracts were obtained using a modified method previously described (Sever Chroneos, et al. Am. J. Physiol. 277:L79). Lavaged cells were lysed with Buffer A (10 mM Hepes, 10 mM KCl, 0.1 mM EDTA, 1.5 mM MgCl2, 0.2% Nonidet P-40 (NP-40), 1 mM DTT, 0.5 mM PMSF), followed by vortexing to shear the cytoplasmic membranes. Nuclei were pelleted by centrifugation at 3000 rpm for 3 min at 4° C. in a microcentrifuge. Nuclear proteins were extracted with high-salt buffer C (20 mM Hepes, 25% glycerol, 1.5 mM MgCl2, 0.1 mM EDTA, 1.5 mM MgCl2, 420 mM NaCl, 1 mM DTT, 0.5 mM PMSF) and stored at −80° C. Total nuclear protein concentrations were determined by bicinchoninic acid (BCA) method.

AP-1 = test: EMSA of nuclear extracts from AMs of SP-D(−/−) mice, AP-1 oligonucleotide; format: cell-based, mouse; conditions: AMs isolated from SP-D(−/−) mice
Procedure: as §1

[1] = system: RAW 264.7 murine macrophage cell line; test: MMP-9 production by RAW 264.7 macrophages (zymography); format: cell-based, mouse; conditions: 10 μM, 24 hours
Procedure: RAW 264.7 murine macrophage cell line was obtained from the American Type Culture Collection (Rockville, Md.) and maintained in DMEM containing 10% FBS, 10 mM HEPES, 50 U/ml penicillin and 50 μg/mL streptomycin. 2×10^5 cells in 24-well plates were incubated with or without 10 μM menadione (Sigma, St. Louis, Mo.) for 24 hours. To assess whether ROS directly stimulated MMP production, RAW 264.7 macrophages were incubated with 10 μM of menadione, a ROS generator, for 24 hours.

SP-D(−/−) mice = test: Treatment of SP-D(−/−) mice with purified mouse SP-D: saturated PC pools; format: in vivo; conditions: 2.9 μg intratracheally at 24 hour intervals, 3 to 7 doses
[2] = system: influenza A virus A/Phillipines/82 (H3N2) (Phil/82); format: in vivo; conditions: SP-D −/− mice

S=C(S)N1CCCC1 [PDTC, pyrrolidine dithiocarbamate]
gelatinolytic activity of MMP-2 and 9 in conditioned media (MMP-2 and 9): reduced gelatinolytic activity; also recorded: inhibited gelatinolytic activities of MMP-2 and 9

CC(=O)N[C@@H](CS)C(=O)O [NAC, N-acetylcysteine]
gelatinolytic activity of MMP-2 and 9 in conditioned media (MMP-2 and 9): reduced gelatinolytic activity; also recorded: inhibited gelatinolytic activities of MMP-2 and 9

c1ccc2c(c1)[I+]c1ccccc1-2 [DPI, diphenylene iodonium chloride]
gelatinolytic activity of MMP-2 and 9 in conditioned media (MMP-2 and 9): markedly suppressed MMP enzymatic activity; also recorded: markedly decreased MMP activity

COc1cc(C(C)=O)ccc1O [apocynin]
gelatinolytic activity of MMP-2 and 9 in conditioned media (MMP-2 and 9): markedly suppressed MMP enzymatic activity; also recorded: markedly decreased MMP activity
MMP-2 and 9 mRNA (MMP-2 and 9 mRNA): reduced MMP-2 and 9 mRNA
binding of nuclear extracts to NF-κB oligonucleotide (EMSA) (NF-κB): reduced DNA binding activity of NF-κB
binding of nuclear extracts to NF-κB oligonucleotide (EMSA) (NF-κB; listed as Apocynin): reduced binding of nuclear extracts
DNA binding activity to an AP-1 oligonucleotide (EMSA) (AP-1): decreased DNA binding activity

CC1=CC(=O)c2ccccc2C1=O [menadione]
MMP-9 production [1]: increased

B1: purified mouse SP-D: Surfactant protein D purified from BAL fluid of GMCSF and SP-A double null mutant mice on maltosyl-agarose (protein, UniProt P50404 20-374, looked up)
Pulmonary …: AEMKSLSQRSVPNTCTLVMCSPTENGLPGRDGRDGREGPRGEKGDPGLPGPMGLSGLQGPTGPVGPKGENGSAGEPGPKGERGLSGPPGLPGIPGPAGKEGPSGKQGNIGPQGKPGPKGEAGPKGEVGAPGMQGSTGAKGSTGPKGERGAPGVQGAPGNAGAAGPAGPAGPQGAPGSRGPPGLKGDRGVPGDRGIKGESGLPDSAALRQQMEALKGKLQRLEVAFSHYQKAALFPDGRSVGDKIFRTADSEKPFEDAQEMCKQAGGQLASPRSATENAAIQQLITAHNKAAFLSMTDVGTEGKFTYPTGEPLVYSNWAPGEPNNNGGAENCVEIFTNGQWNDKACGEQRLVICEF
Saturated PC levels in alveolar lavage and total lung lavage (lipid accumulation) (SP-D(−/−) mice): partial correction of lipid accumulation; also recorded: decreased both alveolar and saturated PC pools
MMP production by AMs (MMP-2 and 9; mouse SP-D 5 μg/ml in vitro): did not reduce MMP production

B2: recombinant SP-D: Recombinant human SP-D dodecamers secreted by CHO-K1 cells transfected with full-length human cDNA (protein)
chain: AEMKSLSQRSVPNTCTLVMCSPTENGLPGRDGRDGREGPRGEKGDPGLPGPMGLSGLQGPTGPVGPKGENGSAGEPGPKGERGLSGPPGLPGIPGPAGKEGPSGKQGNIGPQGKPGPKGEAGPKGEVGAPGMQGSTGAKGSTGPKGERGAPGVQGAPGNAGAAGPAGPAGPQGAPGSRGPPGLKGDRGVPGDRGIKGESGLPDSAALRQQMEALKGKLQRLEVAFSHYQKAALFPDGRSVGDKIFRTADSEKPFEDAQEMCKQAGGQLASPRSATENAAIQQLITAHNKAAFLSMTDVGTEGKFTYPTGEPLVYSNWAPGEPNNNGGAENCVEIFTNGQWNDKACGEQRLVICEF
IAV (Phil/82) titer in lung ([2]; 5 μg intratracheal co-administration, 3 days after infection, untreated 1.6×10^5±4.0×10^4, mean±SEM): 7.5×10^4±1.4×10^4 ff/gram lung
clearance of IAV from the lung ([2]; co-administration of recombinant SP-D): normalized viral clearance; also recorded: enhanced clearance
